Data from ChEMBL document CHEMBL1153401, “Role of the hydrogen bonding heteroatom-Lys53 interaction between the p38alpha mitogen-activated protein (MAP) kinase and pyridinyl-substituted 5-membered heterocyclic ring inhibitors” (J Med Chem, 2009).

biological target: Mitogen-activated protein kinase 14 (Homo sapiens, UniProt Q16539); assay: Inhibition of p38alpha MAP kinase
Sequence (Q16539 whole entry): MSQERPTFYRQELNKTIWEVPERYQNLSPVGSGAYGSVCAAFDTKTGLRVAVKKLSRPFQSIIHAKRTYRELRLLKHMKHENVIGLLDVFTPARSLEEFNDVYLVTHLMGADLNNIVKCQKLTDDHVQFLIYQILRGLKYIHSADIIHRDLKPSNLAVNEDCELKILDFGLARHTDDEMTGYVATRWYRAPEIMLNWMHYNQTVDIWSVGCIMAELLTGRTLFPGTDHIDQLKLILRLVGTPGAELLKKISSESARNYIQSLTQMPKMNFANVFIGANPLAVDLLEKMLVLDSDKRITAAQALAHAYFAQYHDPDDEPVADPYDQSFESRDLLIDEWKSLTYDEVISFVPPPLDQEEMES

| IC50 [nM] | SMILES |
| --- | --- |
| 79 | Fc1ccc(-c2nc[nH]c2-c2ccncc2)cc1 |
| 740 | Fc1ccc(-c2occc2-c2ccncc2)cc1 |
| 4050 | Fc1ccc(C2=C(c3ccncc3)CCC2)cc1 |
| 420 | Fc1ccc(-c2[nH]ccc2-c2ccncc2)cc1 |
